Experimental data: the supplement of paper PMC10307832

How the values were obtained:
Test in all cases: relative viability (nuclei count vs DMSO), 5 days (fraction); higher = more cells survive
[1] = compound: CCN(CC)CCNC(=O)c1c(C)[nH]c(/C=C2\C(=O)Nc3ccc(F)cc32)c1C [Sunitinib] + CS(=O)(=O)N1CCN(Cc2cc3nc(-c4cccc5[nH]ncc45)nc(N4CCOCC4)c3s2)CC1 [Pictilisib] (partner 1 µM)
Summary of the method: (§1)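 Relative viability equals treated-well nuclei counts divided by vehicle-well nuclei counts. Counts came from 4× images of lung cancer cell lines grown in 1536-well plates for 5 days after pin-tool dosing on the day after seeding. Dosing used one drug alone or a fixed anchor-drug dose plus five library-drug doses (not always all listed) in √10 steps, and values are medians of duplicate plates.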

[2] = compound: CCN(CC)CCNC(=O)c1c(C)[nH]c(/C=C2\C(=O)Nc3ccc(F)cc32)c1C [Sunitinib] + C[C@]1(O)C[C@@H](c2nc(-c3ccc4ccc(-c5ccccc5)nc4c3)c3c(N)nccn32)C1 [Linsitinib] (partner 1 µM)
Summary of the method: as §1

[3] = compound: CCN(CC)CCNC(=O)c1c(C)[nH]c(/C=C2\C(=O)Nc3ccc(F)cc32)c1C [Sunitinib] + Nc1ncn([C@H]2C[C@H](O)[C@@H](CO)O2)c(=O)n1 [Decitabine] (partner 2 µM)
Summary of the method: as §1

[4] = compound: CCN(CC)CCNC(=O)c1c(C)[nH]c(/C=C2\C(=O)Nc3ccc(F)cc32)c1C [Sunitinib] + Cc1nc(NC(=O)N2CCC[C@H]2C(N)=O)sc1-c1ccnc(C(C)(C)C(F)(F)F)c1 [Alpelisib] (partner 2 µM)
Summary of the method: as §1

Cell Line	relative viability ([1]; first compound 0.02 µM)	relative viability ([1]; first compound 0.06325 µM)	relative viability ([1]; first compound 0.2 µM)	relative viability ([1]; first compound 0.6325 µM)	relative viability ([1]; first compound 2 µM)	relative viability ([2]; first compound 0.02 µM)	relative viability ([2]; first compound 0.06325 µM)	relative viability ([2]; first compound 0.2 µM)	relative viability ([2]; first compound 0.6325 µM)	relative viability ([2]; first compound 2 µM)	relative viability ([3]; first compound 0.02 µM)	relative viability ([3]; first compound 0.06325 µM)	relative viability ([3]; first compound 0.2 µM)	relative viability ([3]; first compound 0.6325 µM)	relative viability ([3]; first compound 2 µM)	relative viability ([4]; first compound 0.02 µM)	relative viability ([4]; first compound 0.06325 µM)	relative viability ([4]; first compound 0.2 µM)	relative viability ([4]; first compound 0.6325 µM)	relative viability ([4]; first compound 2 µM)
COR-L23	0.788	1.04	0.97	0.881	0.812	0.902	1.1	1	1.02	0.999	0.435	0.482	0.426	0.505	0.451	0.897	0.724	0.935	0.917	0.891
LK-2	0.505	0.543	0.558	0.573	0.465	0.504	0.516	0.658	0.712	0.637	0.238	0.409	0.299	0.316	0.279	0.942	0.906	1.28	1.18	0.916
SK-LU-1	0.538	0.66	0.603	0.53	0.483	1.29	1.09	1.28			0.571	0.688	0.635	0.651	0.603	0.863	1.25	1.12	1.09	0.669
NCI-H1651	0.462	0.729	0.616	0.614	0.593	0.882	1.07	1.09	0.998	0.96	0.552	0.633	0.591	0.557	0.523	0.738	0.969	1.17	1.02	0.991
NCI-H2126	0.465	0.55	0.517	0.563	0.502	0.719	0.695	0.74	0.759	0.717	0.589	0.572	0.532	0.592	0.579	0.736	0.76	0.818	0.747	0.715
NCI-H596	0.376	0.392	0.428	0.394	0.434	1	1.02	1.21	1.14	0.911	0.895	0.902	1.16	1.01	0.962	0.476	0.596	0.604	0.485	0.42
NCI-H1734	0.433	0.518	0.522	0.452	0.423	0.844	0.95	0.936	0.944	0.756	0.528	0.495	0.514	0.477	0.497	0.626	0.673	0.869	0.669	0.641
NCI-H1648											0.46	0.647	0.633	0.55	0.681					
NCI-H23	0.498	0.594	0.483	0.468	0.504	0.552	0.6	0.605	0.674	0.554	0.293	0.351	0.328	0.307	0.329	0.568	0.747	0.751	0.828	0.692
LXF-289	0.743	0.874	0.868	0.786	0.881	0.947	0.978	1.02	0.988		0.379	0.394	0.436	0.382	0.408	1.01	1.02	1.13	1.12	1.04
HCC-44	0.524	0.653	0.968	0.786	0.598	0.641	0.757	0.772	0.665	0.727	0.931	1.04	0.99	0.951	0.949	0.72	0.909	0.966	0.863	0.826
EMC-BAC-2	0.501	0.601	0.589	0.548	0.565	0.769	0.817	0.896	0.865	0.778	0.94	1.02	1.14		1.04	0.712	0.742	0.901	0.791	0.72
NCI-H522											0.594	0.675	0.735	0.719	0.717					
NCI-H1975	0.285	0.345	0.319	0.33	0.237		0.969	1.01	0.986	0.868	0.369	0.408	0.405	0.427	0.391	0.597	0.686	0.669	0.677	0.381
PC-14	0.698	0.723	0.957	0.706	0.553		1.05	1.04	1.02	0.881	0.2	0.23	0.239	0.23	0.252	0.95	0.874	1.05	1.08	0.908
LCLC-103H	0.558	0.649	0.643	0.614	0.536	0.987	1.02	1.11	1.1	1.08	0.691	0.798	0.77	0.709	0.71	0.822	0.945	0.993	0.958	0.959
NCI-H1944	0.315	0.379	0.412	0.337	0.374	1.12	1.18	1.28	1.25	1.16	0.477	0.415	0.466	0.42	0.449	0.798	0.883	1.02	0.964	
HOP-62	0.66	1.08	0.745	0.696	0.724	0.968	1.23	1.18	1.1	1.11	0.22	0.218	0.252	0.209	0.239	0.964	0.851	1.04	1.05	0.919
HCC-827	1.01	1.09	1.11	1.11	1.13	0.971	0.887	0.98	1	0.936	0.324	0.314	0.31	0.322	0.292	1.02	1.04	1.01	1.04	0.887

Cell Line	relative viability ([1]; first compound 0.02 µM)	relative viability ([1]; first compound 0.06325 µM)	relative viability ([1]; first compound 0.2 µM)	relative viability ([1]; first compound 0.6325 µM)	relative viability ([1]; first compound 2 µM)	relative viability ([2]; first compound 0.02 µM)	relative viability ([2]; first compound 0.06325 µM)	relative viability ([2]; first compound 0.2 µM)	relative viability ([2]; first compound 0.6325 µM)	relative viability ([2]; first compound 2 µM)	relative viability ([3]; first compound 0.02 µM)	relative viability ([3]; first compound 0.06325 µM)	relative viability ([3]; first compound 0.2 µM)	relative viability ([3]; first compound 0.6325 µM)	relative viability ([3]; first compound 2 µM)	relative viability ([4]; first compound 0.02 µM)	relative viability ([4]; first compound 0.06325 µM)	relative viability ([4]; first compound 0.2 µM)	relative viability ([4]; first compound 0.6325 µM)	relative viability ([4]; first compound 2 µM)
NCI-H2228	0.536	0.445	0.299	0.454	0.216	0.611	0.584	0.841	0.808	0.349						0.735	0.729	1	0.717	0.538
UMC-11	0.793	0.883	0.968	0.814	0.866	0.958	0.958	1.08	1.01	0.914	0.553	0.551	0.583	0.737	0.597	0.945	1.03	0.892	0.929	0.912
NCI-H2342											0.751	0.784	0.708	0.819	0.718					
ABC-1	0.818		0.668	0.991	0.802	1.03	0.766	0.855	0.923	0.718	1.01	0.926	1.07	1.22	0.849	1.08	0.994	1.2	1.26	0.837
HARA	0.397	0.374	0.606	0.31	0.323	0.948	0.978	1.14	0.956	0.858	0.506	0.604	0.539	0.563	0.586	0.816	0.947	0.979		0.743
HCC-78	0.206		0.227		0.246	0.472		0.501		0.565	0.709	0.69	0.737	0.683	0.726	0.364		0.321		0.419
NCI-H1792	0.242	0.291	0.243	0.242	0.265	0.556	0.479	0.419	0.511	0.561	0.457	0.594	0.625	0.527	0.591	0.578	0.56	0.78	0.682	0.824
NCI-H2405	0.382	0.49	0.502	0.524	0.474		1.02	0.976	1.08	0.917	0.811	0.8	0.761	0.754	0.761	0.816	0.811	0.862	1.06	0.713
BEN	0.494	0.552	0.615	0.566	0.52		0.862	1.07	0.951	0.896	0.698	0.766	0.7	0.62	0.715	0.898	1.1	1.04	0.991	0.955
Calu-6	0.901	0.887	1.13	1.09	0.93	0.874	1.08		1.08	0.981						0.904	1.1	1.11	1.16	0.898
RERF-LC-KJ	0.642	0.507	0.51	0.468	0.528	0.868	0.869	0.968	1.07	0.855	0.713	0.743	0.651	0.683	0.777	0.775	0.826	0.932		0.789
NCI-H2085	0.431	0.476	0.519	0.519	0.555		0.923	0.939	0.945	1.02	0.527	0.55	0.554	0.595	0.579	0.998		0.992	0.988	0.978
NCI-H1563	0.637	0.641	0.695	0.653	0.643	1.27	1.23	1.23	1.21	1.22						0.984	0.952	0.884	0.93	0.965
EBC-1	0.41	0.377	0.463	0.411	0.46	0.9	0.972	1.01	0.993	0.957						0.857	0.971	0.871	0.87	1
ChaGo-K-1	0.766	0.786	0.774	0.624	0.756						0.511	0.485	0.533	0.537	0.555					
CAL-12T	0.47	0.58	0.431	0.628	0.414	0.807	0.82	1.2	1.06	1.01						0.957	1.19	1.25	1.43	1.14
NCI-H2170	0.307	0.311	0.311	0.303	0.236						0.452	0.465	0.484	0.422	0.412	0.757	0.782	0.998	0.914	0.777
NCI-H1650	0.535	0.559	0.545	0.681	0.536						0.45	0.379	0.315	0.475	0.416					
NCI-H1299	0.748	0.654	0.862		0.558	0.922		1.05	0.998	1.05						1.02		1.06	1.08	1.06
